Measurements from ChEMBL document CHEMBL1201862, “PubChem BioAssay data set” (2004).
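Growth conditions: 96-well plates. Treatment: test compound, 48 hours, 5 concentrations. Analysis: linear interpolation between bracketing concentrations; unreached endpoints set to highest concentration. Abbreviation: GI50, concentration required for 50% inhibition of growth.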 Activity calls are given as the source filed them. Rule as the data show it: active = GI50 up to about 1.1 µM and inactive = higher.

Tests used:
Test in all cases: NCI-60 cell line screen, 48 h
786-0 = tested on: 786-0
A498 = tested on: A498
A549 = tested on: A549
ACHN = tested on: ACHN
HCC 2998 = tested on: HCC 2998
HOP-62 = tested on: HOP-62
KM12 = tested on: KM12
LOX IMVI = tested on: LOX IMVI
MDA-N = tested on: MDA-N
NCI-H226 = tested on: NCI-H226
NCI-H23 = tested on: NCI-H23
NCI-H522 = tested on: NCI-H522
NCI/ADR-RES = tested on: NCI/ADR-RES
OVCAR-5 = tested on: OVCAR-5
OVCAR-8 = tested on: OVCAR-8
SF-295 = tested on: SF-295
SK-OV-3 = tested on: SK-OV-3
T47D = tested on: T47D
U-251 = tested on: U-251
SR = tested on: SR

Measured: GI50

NC(=S)SCCC(=O)O
inactive: 786-0 > 100 µM | A498 > 100 µM | A549 > 100 µM | ACHN > 100 µM | HCC 2998 > 100 µM | HOP-62 > 100 µM | KM12 > 100 µM | LOX IMVI > 100 µM | MDA-N > 100 µM | NCI-H226 > 100 µM | NCI-H23 > 100 µM | NCI-H522 > 100 µM | NCI/ADR-RES > 100 µM | OVCAR-5 > 100 µM | OVCAR-8 > 100 µM | SF-295 > 100 µM | SK-OV-3 > 100 µM | T47D 43.2 µM | U-251 > 100 µM

C[C@H]1ON2CCC[C@@H]2[C@@H]1C(=O)N1C2CC3CCC2(CS1(=O)=O)C3(C)C (stereo partly specified)
inactive: 786-0 > 100 µM | A498 > 100 µM | A549 > 100 µM | ACHN > 100 µM | HCC 2998 > 100 µM | HOP-62 > 100 µM | KM12 > 100 µM | LOX IMVI > 100 µM | MDA-N > 100 µM | NCI-H226 > 100 µM | NCI-H23 > 100 µM | NCI-H522 > 100 µM | NCI/ADR-RES > 100 µM | OVCAR-5 > 100 µM | OVCAR-8 > 100 µM | SF-295 > 100 µM | SK-OV-3 > 100 µM | T47D > 100 µM | U-251 > 100 µM

Cc1ccc(S(=O)(=O)NNC2(NS(=O)(=O)c3ccc(Cl)cc3)C(Cl)=C(Cl)C(=O)c3ccccc32)cc1 (stereo unspecified)
inactive: 786-0 14.1 µM | A498 17.8 µM | A549 16.9 µM | ACHN 16.1 µM | HCC 2998 18.5 µM | HOP-62 21.3 µM | KM12 17.3 µM | LOX IMVI 23.5 µM | MDA-N 17.4 µM | NCI-H23 15 µM | NCI-H522 21.7 µM | NCI/ADR-RES 23.1 µM | OVCAR-5 18.3 µM | OVCAR-8 21.6 µM | SF-295 20.9 µM | SK-OV-3 16.9 µM | T47D 28.3 µM | U-251 21.8 µM

O=c1cc(CN2CCCCC2)nc2ccc3c(O)cc(CN4CCCCC4)nc3n12
inactive: 786-0 > 100 µM | A498 > 100 µM | A549 > 100 µM | ACHN > 100 µM | HCC 2998 > 100 µM | HOP-62 > 100 µM | KM12 > 100 µM | LOX IMVI > 100 µM | MDA-N > 100 µM | NCI-H226 > 100 µM | NCI-H23 > 100 µM | NCI/ADR-RES > 100 µM | OVCAR-5 > 100 µM | OVCAR-8 > 100 µM | SF-295 > 100 µM | SK-OV-3 48.4 µM | SR > 100 µM | T47D > 100 µM | U-251 > 100 µM

COC(OC)[C@@H]1OC[C@H](n2ccc(=O)[nH]c2=O)[C@H]1O
inactive: 786-0 > 100 µM | A498 > 100 µM | A549 > 100 µM | ACHN > 100 µM | HCC 2998 > 100 µM | HOP-62 > 100 µM | KM12 > 100 µM | LOX IMVI > 100 µM | MDA-N > 100 µM | NCI-H226 > 100 µM | NCI-H23 > 100 µM | NCI/ADR-RES > 100 µM | OVCAR-5 > 100 µM | SF-295 > 100 µM | SK-OV-3 > 100 µM | SR > 100 µM | T47D > 100 µM | U-251 > 100 µM

CCOC(=O)/C(=N\Nc1ccc(-n2c(C)nc3ccc(Br)cc3c2=O)cc1)C(C)=O
inactive: 786-0 59.2 µM | A498 52.7 µM | A549 53.8 µM | ACHN 93.1 µM | HOP-62 42.8 µM | KM12 59.6 µM | LOX IMVI > 100 µM | MDA-N 71.1 µM | NCI-H226 77.8 µM | NCI-H23 69.5 µM | NCI/ADR-RES 52 µM | OVCAR-5 > 100 µM | OVCAR-8 55.2 µM | SF-295 48 µM | SK-OV-3 > 100 µM | SR 22.3 µM | T47D 33.1 µM | U-251 59.6 µM
